Converted amounts (≈) assume the structure as drawn. The source made the active and inactive calls. No cut-off for these calls is given here.
Key:
[1] = biological target: Prostaglandin E2 receptor EP1 subtype (Homo sapiens) (UniProt P34995); assay: Inhibition of human prostanoid EP1 receptor at 10 uM relative to control
[2] = biological target: Sodium-dependent serotonin transporter (Homo sapiens) (UniProt P31645); assay: Inhibition of human SERT at 10 uM relative to control
[3] = biological target: Alpha-2A adrenergic receptor (Homo sapiens) (UniProt P08913); assay: Inhibition of human adrenergic alpha2A receptor at 10 uM relative to control
[4] = biological target: Prostaglandin G/H synthase 2 (Homo sapiens) (UniProt P35354); assay: Inhibition of human recombinant cyclooxygenase COX2 expressed in baculovirus infected Sf9 cells at 10 uM using arachidonic acid as substrate preincubated for 15 mins followed by substrate addition and measured after 3 mins by ampliflu red reagent-based spectrofluorimetric method relative to control
[5] = biological target: Cysteinyl leukotriene receptor 2 (Homo sapiens) (UniProt Q9NS75); assay: Displacement of [3H]LTD4 from human full-length recombinant cysteinyl leukotriene type-2 receptor expressed in HEK293 cells at 10 uM measured after 60 mins by scintillation counting method relative to control; format: cell-based
[6] = biological target: MAP/microtubule affinity-regulating kinase 3 (Homo sapiens) (UniProt P27448); assay: Inhibition of human full-length recombinant MARK3 expressed in insect cells at 10 uM using CHKtide as substrate preincubated for 15 mins followed by substrate addition and measured after 30 mins in presence of [gamma32P]ATP by scintillation counting analysis relative to control
[7] = biological target: Alpha-2C adrenergic receptor (Homo sapiens) (UniProt P18825); assay: Inhibition of human adrenergic alpha2C receptor at 10 uM relative to control
[8] = biological target: 5-hydroxytryptamine receptor 2C (Homo sapiens) (UniProt P28335); assay: Inhibition of human 5-HT2C receptor at 10 uM relative to control
[9] = biological target: Cathepsin G (Homo sapiens) (UniProt P08311); assay: Inhibition of human neutrophil cathepsin G at 10 uM using Suc-Ala-Ala-Pro-Phe-AMC as substrate preincubated for 15 mins followed by substrate addition and measured after 30 mins by spectrofluorimetric analysis relative to control
[10] = biological target: Caspase-8 (Homo sapiens) (UniProt Q14790); assay: Inhibition of human full-length recombinant caspase 8 expressed in Escherichia coli at 10 uM using Ac-IETD-AMC as substrate preincubated for 15 mins followed by substrate addition and measured after 60 mins by spectrofluorimetric analysis relative to control
[11] = biological target: B1 bradykinin receptor (Homo sapiens) (UniProt P46663); assay: Displacement of [3H]Kallidin(des-Arg10,Leu9) from human recombinant bradykinin B1 receptor expressed in CHOK1 cells at 10 uM after 60 mins by scintillation counting assay relative to control; format: cell-based
[12] = biological target: Mitogen-activated protein kinase 3 (Homo sapiens) (UniProt P27361); assay: Inhibition of human recombinant full-length ERK1 expressed in Escherichia coli at 10 uM using myelin basic protein as substrate preincubated for 30 mins followed by substrate addition and measured after 30 mins in the presence of [gamma32P]ATP by scintillation counting method relative to control
[13] = biological target: Caspase-9 (Homo sapiens) (UniProt P55211); assay: Inhibition of human full-length recombinant caspase 9 expressed in Escherichia coli at 10 uM using Ac-LEHD-AFC as substrate preincubated for 15 mins followed by substrate addition and measured after 60 mins by spectrofluorimetric analysis relative to control
[14] = test system: Rattus norvegicus; assay: Hypoglycemic activity in Sprague-Dawley rat assessed as reduction in blood glucose AUC at 0.3 mg/kg, po pretreated for 1 hr followed by glucose challenge by OGTT relative to control; format: functional
[15] = biological target: 5-hydroxytryptamine receptor 2B (Homo sapiens) (UniProt P41595); assay: Inhibition of human 5-HT2B receptor at 10 uM relative to control
[16] = biological target: Free fatty acid receptor 1 (Homo sapiens, UniProt O14842); assay: Positive allosteric modulation of recombinant human GPR40 expressed in HEK293 cells assessed as increase in [3H]-myo-inositol phosphate accumulation measured after 60 mins in presence of 100% human serum by microbeta counting method; format: functional, cell-based
[17] = biological target: Prostaglandin E2 receptor EP3 subtype (Homo sapiens) (UniProt P43115); assay: Inhibition of human prostanoid EP3 receptor at 10 uM relative to control
[18] = species on record: Mus musculus; assay: Glucose lowering effect in GPR40 knockout mouse assessed as increase in GLP-1 level; format: functional, organism-based
[19] = biological target: Prostaglandin G/H synthase 1 (Homo sapiens) (UniProt P23219); assay: Inhibition of human recombinant cyclooxygenase COX1 expressed in baculovirus infected Sf9 cells at 10 uM using arachidonic acid as substrate preincubated for 15 mins followed by substrate addition and measured after 3 mins by ampliflu red reagent-based spectrofluorimetric method relative to control
[20] = biological target: Sodium-dependent dopamine transporter (Homo sapiens) (UniProt Q01959); assay: Inhibition of human sodium dependent dopamine transporter at 10 uM relative to control
[21] = biological target: Sodium-dependent noradrenaline transporter (Homo sapiens) (UniProt P23975); assay: Inhibition of human sodium dependent noradrenaline transporter at 10 uM relative to control
[22] = biological target: D(2) dopamine receptor (Homo sapiens) (UniProt P14416); assay: Inhibition of human dopamine D2s receptor at 10 uM relative to control
[23] = biological target: Mu-type opioid receptor (Homo sapiens) (UniProt P35372); assay: Inhibition of human mu type opioid receptor at 10 uM relative to control
[24] = biological target: Acetylcholinesterase (Homo sapiens) (UniProt P22303); assay: Inhibition of human recombinant full length acetylcholine esterase expressed in HEK293 cells at 10 uM using acetylcholine as substrate preincubated for 15 mins followed by substrate addition measured after 20 mins by spectrophotometric analysis
[25] = biological target: 5-hydroxytryptamine receptor 1A (Homo sapiens) (UniProt P08908); assay: Inhibition of human 5HT1A receptor at 10 uM relative to control
[26] = biological target: Histamine H1 receptor (Homo sapiens) (UniProt P35367); assay: Inhibition of human histamine H1 receptor at 10 uM relative to control
[27] = biological target: 5-hydroxytryptamine receptor 2A (Homo sapiens) (UniProt P28223); assay: Inhibition of human 5-HT2A receptor at 10 uM relative to control
[28] = species on record: Rattus norvegicus; assay: Inhibition of rat P2Y receptor at 10 uM relative to control
[29] = biological target: Kappa-type opioid receptor (Homo sapiens) (UniProt P41145); assay: Inhibition of human kappa type opioid receptor at 10 uM relative to control
[30] = biological target: Histamine H4 receptor (Homo sapiens) (UniProt Q9H3N8); assay: Inhibition of human histamine H4 receptor at 10 uM relative to control
[31] = Solubility of the compound in FASSIF; format: physicochemical
[32] = biological target: Histamine H2 receptor (Homo sapiens) (UniProt P25021); assay: Inhibition of human histamine H2 receptor at 10 uM relative to control
[33] = biological target: Muscarinic acetylcholine receptor M3 (Homo sapiens) (UniProt P20309); assay: Inhibition of human muscarinic M3 receptor at 10 uM relative to control
[34] = biological target: D(1A) dopamine receptor (Homo sapiens) (UniProt P21728); assay: Inhibition of human dopamine D1 receptor at 10 uM relative to control
[35] = biological target: GABA-A receptor; anion channel (Rattus norvegicus) (UniProt O09028+P15431+P18506+P18508+P19969+P20236+P23574+P23576+P28471+P28473+P30191+P62813+P63079+P63138+Q91ZM7+Q9ES14); assay: Inhibition of rat GABAA receptor at 10 uM relative to control; format: protein-complex assay

Chain of Kappa-type opioid receptor (Homo sapiens) (P41145 whole entry): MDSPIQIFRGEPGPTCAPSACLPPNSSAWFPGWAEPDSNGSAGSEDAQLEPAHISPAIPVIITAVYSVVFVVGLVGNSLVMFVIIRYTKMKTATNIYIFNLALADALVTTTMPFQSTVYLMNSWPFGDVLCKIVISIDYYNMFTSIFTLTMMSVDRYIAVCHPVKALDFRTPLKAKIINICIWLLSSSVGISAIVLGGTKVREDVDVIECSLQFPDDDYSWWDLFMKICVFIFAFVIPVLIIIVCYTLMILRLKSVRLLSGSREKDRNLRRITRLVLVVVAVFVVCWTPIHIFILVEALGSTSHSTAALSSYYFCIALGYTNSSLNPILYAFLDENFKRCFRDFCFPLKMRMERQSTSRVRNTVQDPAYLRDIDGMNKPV
Chain of Sodium-dependent noradrenaline transporter (Homo sapiens) (P23975 whole entry): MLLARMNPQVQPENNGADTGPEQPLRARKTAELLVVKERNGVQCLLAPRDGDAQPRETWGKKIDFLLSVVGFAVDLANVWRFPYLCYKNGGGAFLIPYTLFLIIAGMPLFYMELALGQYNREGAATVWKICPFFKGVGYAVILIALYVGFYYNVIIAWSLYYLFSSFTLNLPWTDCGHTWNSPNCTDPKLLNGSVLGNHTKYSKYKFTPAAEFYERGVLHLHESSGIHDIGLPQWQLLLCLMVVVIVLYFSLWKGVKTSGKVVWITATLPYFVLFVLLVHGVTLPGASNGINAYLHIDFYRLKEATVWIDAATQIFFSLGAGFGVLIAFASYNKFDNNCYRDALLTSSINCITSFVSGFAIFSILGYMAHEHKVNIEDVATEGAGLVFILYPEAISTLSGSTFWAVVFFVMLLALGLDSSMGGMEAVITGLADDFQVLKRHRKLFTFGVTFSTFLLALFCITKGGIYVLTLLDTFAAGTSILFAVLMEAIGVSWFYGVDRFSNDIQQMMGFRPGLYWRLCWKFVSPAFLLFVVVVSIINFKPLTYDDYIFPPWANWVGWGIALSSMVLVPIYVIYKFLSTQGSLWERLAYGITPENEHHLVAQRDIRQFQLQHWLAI
Chain of 5-hydroxytryptamine receptor 1A (Homo sapiens) (P08908 whole entry): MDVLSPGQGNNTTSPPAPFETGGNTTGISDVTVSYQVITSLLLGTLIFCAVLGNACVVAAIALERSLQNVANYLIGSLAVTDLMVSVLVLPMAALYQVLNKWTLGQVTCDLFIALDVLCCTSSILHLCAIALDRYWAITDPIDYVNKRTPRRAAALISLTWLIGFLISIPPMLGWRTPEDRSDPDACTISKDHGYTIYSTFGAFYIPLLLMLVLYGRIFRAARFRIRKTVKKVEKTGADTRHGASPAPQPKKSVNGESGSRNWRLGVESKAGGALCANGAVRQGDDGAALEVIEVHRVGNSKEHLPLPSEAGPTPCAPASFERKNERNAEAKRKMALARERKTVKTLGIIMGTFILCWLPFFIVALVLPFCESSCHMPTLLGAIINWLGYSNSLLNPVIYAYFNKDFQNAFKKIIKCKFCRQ
Chain of Prostaglandin G/H synthase 2 (Homo sapiens) (P35354 whole entry): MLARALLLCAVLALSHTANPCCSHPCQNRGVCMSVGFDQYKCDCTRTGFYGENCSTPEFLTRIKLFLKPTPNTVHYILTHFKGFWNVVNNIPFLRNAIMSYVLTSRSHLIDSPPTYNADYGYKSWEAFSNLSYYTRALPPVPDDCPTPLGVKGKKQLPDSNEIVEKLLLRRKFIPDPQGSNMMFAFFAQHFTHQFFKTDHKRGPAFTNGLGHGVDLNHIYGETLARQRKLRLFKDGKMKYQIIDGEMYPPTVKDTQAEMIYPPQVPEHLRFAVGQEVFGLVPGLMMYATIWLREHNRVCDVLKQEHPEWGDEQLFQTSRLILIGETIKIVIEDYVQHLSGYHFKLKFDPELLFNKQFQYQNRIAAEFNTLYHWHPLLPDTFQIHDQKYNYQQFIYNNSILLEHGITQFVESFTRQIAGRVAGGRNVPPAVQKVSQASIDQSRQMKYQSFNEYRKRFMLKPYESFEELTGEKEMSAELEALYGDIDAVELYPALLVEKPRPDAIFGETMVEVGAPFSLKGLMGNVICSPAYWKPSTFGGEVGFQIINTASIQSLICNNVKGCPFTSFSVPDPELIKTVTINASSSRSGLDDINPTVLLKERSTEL
Chain of Free fatty acid receptor 1 (O14842 whole entry): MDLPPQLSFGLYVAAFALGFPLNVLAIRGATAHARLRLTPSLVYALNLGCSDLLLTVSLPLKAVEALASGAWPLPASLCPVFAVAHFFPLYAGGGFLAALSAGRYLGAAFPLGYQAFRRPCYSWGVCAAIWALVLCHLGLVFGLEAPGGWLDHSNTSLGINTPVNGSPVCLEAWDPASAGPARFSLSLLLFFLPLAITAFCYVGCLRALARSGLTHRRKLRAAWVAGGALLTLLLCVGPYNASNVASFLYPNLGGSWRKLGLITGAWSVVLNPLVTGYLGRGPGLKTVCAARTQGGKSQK
Chain of 5-hydroxytryptamine receptor 2C (Homo sapiens) (P28335 whole entry): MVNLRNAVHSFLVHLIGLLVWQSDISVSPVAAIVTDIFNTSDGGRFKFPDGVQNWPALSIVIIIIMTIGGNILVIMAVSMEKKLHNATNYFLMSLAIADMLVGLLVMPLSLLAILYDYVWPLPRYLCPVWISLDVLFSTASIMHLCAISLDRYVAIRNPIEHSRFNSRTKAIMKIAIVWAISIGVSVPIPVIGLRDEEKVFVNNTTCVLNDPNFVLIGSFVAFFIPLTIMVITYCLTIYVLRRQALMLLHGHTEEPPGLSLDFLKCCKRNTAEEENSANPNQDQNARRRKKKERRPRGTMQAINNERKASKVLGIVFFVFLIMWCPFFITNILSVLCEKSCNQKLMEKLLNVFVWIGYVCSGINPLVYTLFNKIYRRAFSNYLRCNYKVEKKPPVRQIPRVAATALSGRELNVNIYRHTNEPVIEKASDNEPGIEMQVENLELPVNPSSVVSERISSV
Chain of Alpha-2A adrenergic receptor (Homo sapiens) (P08913 whole entry): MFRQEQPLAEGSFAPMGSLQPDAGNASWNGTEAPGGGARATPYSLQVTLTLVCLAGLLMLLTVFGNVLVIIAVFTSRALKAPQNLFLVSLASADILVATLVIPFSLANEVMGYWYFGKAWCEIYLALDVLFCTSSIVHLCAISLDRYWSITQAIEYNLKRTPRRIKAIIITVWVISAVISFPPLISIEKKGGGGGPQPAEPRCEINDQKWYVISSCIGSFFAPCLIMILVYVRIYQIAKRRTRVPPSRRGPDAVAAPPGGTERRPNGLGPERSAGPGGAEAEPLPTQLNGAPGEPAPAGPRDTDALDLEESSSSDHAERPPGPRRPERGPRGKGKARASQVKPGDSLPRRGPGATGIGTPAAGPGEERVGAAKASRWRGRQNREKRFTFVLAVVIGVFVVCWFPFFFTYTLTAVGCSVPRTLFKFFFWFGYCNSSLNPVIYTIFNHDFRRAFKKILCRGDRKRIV
Chain of 5-hydroxytryptamine receptor 2A (Homo sapiens) (P28223 whole entry): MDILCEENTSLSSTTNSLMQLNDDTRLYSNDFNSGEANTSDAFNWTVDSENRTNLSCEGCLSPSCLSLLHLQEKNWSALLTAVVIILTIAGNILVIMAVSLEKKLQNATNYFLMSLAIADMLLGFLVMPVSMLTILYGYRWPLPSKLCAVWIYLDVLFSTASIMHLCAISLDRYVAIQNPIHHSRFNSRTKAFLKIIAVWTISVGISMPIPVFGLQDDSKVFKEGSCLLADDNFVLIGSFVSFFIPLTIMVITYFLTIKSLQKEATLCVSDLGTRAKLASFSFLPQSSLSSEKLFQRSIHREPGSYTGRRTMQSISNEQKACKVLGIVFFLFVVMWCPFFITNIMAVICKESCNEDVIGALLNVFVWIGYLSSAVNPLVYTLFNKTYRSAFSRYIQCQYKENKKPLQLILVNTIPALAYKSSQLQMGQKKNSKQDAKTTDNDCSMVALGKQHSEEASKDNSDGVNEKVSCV
Chain of Sodium-dependent serotonin transporter (Homo sapiens) (P31645 whole entry, looked up): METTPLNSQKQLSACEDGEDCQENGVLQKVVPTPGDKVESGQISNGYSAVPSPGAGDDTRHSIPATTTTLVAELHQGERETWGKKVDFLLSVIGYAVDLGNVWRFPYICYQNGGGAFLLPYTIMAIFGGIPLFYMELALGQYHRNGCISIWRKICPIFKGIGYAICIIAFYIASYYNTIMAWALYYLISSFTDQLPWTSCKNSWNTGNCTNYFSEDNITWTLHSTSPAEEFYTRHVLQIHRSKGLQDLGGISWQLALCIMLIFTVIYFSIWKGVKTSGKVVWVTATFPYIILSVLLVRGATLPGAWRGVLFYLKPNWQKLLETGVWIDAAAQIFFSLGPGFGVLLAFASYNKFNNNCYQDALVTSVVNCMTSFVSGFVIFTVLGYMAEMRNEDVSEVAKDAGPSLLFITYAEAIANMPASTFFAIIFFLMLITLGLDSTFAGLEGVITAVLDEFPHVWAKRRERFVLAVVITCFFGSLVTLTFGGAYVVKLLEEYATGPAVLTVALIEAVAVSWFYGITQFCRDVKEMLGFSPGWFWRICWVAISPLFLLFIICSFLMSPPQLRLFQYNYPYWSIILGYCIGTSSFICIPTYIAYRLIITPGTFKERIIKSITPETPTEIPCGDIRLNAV
Chain of D(1A) dopamine receptor (Homo sapiens) (P21728 whole entry): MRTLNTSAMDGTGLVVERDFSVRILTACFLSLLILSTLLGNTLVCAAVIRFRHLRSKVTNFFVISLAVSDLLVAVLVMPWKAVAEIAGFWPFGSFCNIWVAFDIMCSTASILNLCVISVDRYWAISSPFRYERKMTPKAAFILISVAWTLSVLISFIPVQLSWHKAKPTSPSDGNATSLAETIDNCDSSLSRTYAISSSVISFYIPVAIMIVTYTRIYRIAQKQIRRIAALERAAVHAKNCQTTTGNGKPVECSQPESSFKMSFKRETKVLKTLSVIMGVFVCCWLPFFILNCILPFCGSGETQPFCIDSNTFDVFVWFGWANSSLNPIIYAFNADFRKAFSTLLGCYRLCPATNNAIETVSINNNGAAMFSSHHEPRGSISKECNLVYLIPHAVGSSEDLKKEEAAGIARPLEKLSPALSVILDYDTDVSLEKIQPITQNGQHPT

Compound `COc1ccc(F)c(-c2ccc(COc3cccc([C@@H](CC(=O)O)C4CC4)c3)cc2C2=CCCC2(C)C)c1` has an inhibition [1] of 95%, an inhibition [2] of 70% and an inhibition [3] of 99%. It also gave an inhibition [4] of 77%, an inhibition [5] of 61% and an inhibition [6] of 81%. For the same compound, the inhibition [7] was 99%, the inhibition [8] was 94% and the inhibition [9] was 53%. For the same compound, the inhibition [10] was 65%, the inhibition [11] was 63% and the inhibition [12] was 96%. For the same compound, the inhibition [13] was 89%, the Activity [14] was “Active” and the inhibition [15] was 88%. The fEC50 [16] was 0.06 nM, the inhibition [17] was 77% and the Activity [18] was “Active”. For the same compound, the inhibition [19] was 67%, the inhibition [20] was 97% and the inhibition [21] was 95%. It also gave an inhibition [22] of 66%, an inhibition [23] of 99% and an inhibition [24] of 52%. It also gave an inhibition [25] of 91%, an inhibition [26] of 97% and an inhibition [27] of 89%. For the same compound, the inhibition [28] was 80%, the inhibition [29] was 97% and the inhibition [30] was 82%. For the same compound, the solubility [31] was 166 µM (≈ 85.4 µg/mL), the inhibition [32] was 66% and the inhibition [33] was 60%. The inhibition [34] was 78% and the inhibition [35] was 60%.
